Structures are written as SMILES. Structures can show the parent of a compound that is named as a salt. Some results are limits rather than exact numbers.

The target in assay [1] is T1, human XIAP_BIR3 domain purified protein (Homo sapiens, UniProt P98170).
T1 construct: purchased R & D
Nature of the assay: XIAP binding inhibitory activity (HTRF, b-Smac ligand). Conditions: second symbol of cell; read-out: XIAP binding inhibition IC50 value. In outline:
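HTRF competition between compound and C-terminally biotinylated Smac peptide AVPIAQK for His-tagged XIAP BIR3, both diluted to 90 nM before addition, in pH 7.5 HEPES/NaCl/BSA/Triton buffer. Eu-cryptate anti-His and streptavidin-XL665 added, ≥4 h at room temperature in the dark; inhibition % from 665/615 nm ratio versus no-compound wells.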
(In general: Time-resolved FRET reads energy transfer from a long-lived donor to a nearby acceptor.)

Assay [2] concerns the target T2, IRAK-M (Homo sapiens, UniProt Q9Y616).
T2 sequence (Q9Y616 1-596): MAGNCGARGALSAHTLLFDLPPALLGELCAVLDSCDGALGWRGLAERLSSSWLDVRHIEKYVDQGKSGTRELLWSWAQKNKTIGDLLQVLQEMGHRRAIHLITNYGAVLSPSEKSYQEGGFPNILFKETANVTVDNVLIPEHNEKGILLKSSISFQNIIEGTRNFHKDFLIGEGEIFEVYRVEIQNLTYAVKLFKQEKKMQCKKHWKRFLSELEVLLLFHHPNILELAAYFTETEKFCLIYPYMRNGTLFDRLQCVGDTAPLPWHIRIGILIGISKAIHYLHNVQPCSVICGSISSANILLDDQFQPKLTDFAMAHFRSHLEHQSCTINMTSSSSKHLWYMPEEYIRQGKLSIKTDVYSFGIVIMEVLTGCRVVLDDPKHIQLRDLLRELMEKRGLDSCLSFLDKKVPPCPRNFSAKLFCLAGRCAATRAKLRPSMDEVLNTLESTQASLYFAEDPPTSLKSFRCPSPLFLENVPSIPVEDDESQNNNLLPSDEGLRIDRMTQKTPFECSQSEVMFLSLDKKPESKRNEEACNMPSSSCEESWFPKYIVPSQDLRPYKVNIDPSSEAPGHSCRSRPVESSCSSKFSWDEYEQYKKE
Nature of the assay: In vitro degradation activity of target protein (IRAK-M ELISA in THP1 cells). In kind it is cell-based. Also on record: host or cells: THP1 cells. Conditions: 24 hours, second symbol of cell, read-out: IRAK-M 50% degradation concentration (DC50 value). The procedure: In vitro degradation activities of target protein of the example compounds were evaluated using Enzyme-linked immuno-sorbent assay (ELISA) by the following assay steps. THP1 cells (ATCC, TIB-202) were cultured in RPMI-1640 supplemented with 10% FBS, lx sodium pyruvate, lx HEPES, D-(+)-glucose and 1% penicillin/streptomycin. THP1 cells were seeded at a density of 1×10^6 cells/well in 24-well plate and treated with DMSO control or test compound, and then incubated for 24 hours. The cells were collected and lysed on ice for 30 minutes in lysis buffer (PBS containing 0.1% Triton X-100) containing a protease inhibitor cocktail (Roche, Cat #11836170001). The lysates were sonicated for 30 sec ON/30 sec OFF for ten cycles and centrifuged for 10 minutes at 13k rpm at 4° C. Protein concentrations were determined by the BCA assay (Sigma, Cat #QPBCA-1KT). The ELISA assay was performed using the Human IRAK3/IRAKM/IRAK-M ELISA Kit (LifeSpan BioSciences, Cat #LS-F35271), and the protein levels of IRAK-M were evaluated according to the kit protocol. As to the IRAK-M degradation rate of test compounds, protein degradation rate (%) when the concentration of the test compound is […] described as A≥75%, 50%≤B<75%, 25%≤C<50%, D<25%, or 50% degradation concentration (DC50 value) described as A<0.03 μM, 0.03 μM≤B<0.1 μM, 0.1 μM≤C<0.3 μM, 0.3 μM≤D<1 μM, is shown in the table below.
(ELISA stands for enzyme-linked immunosorbent assay.)

For assay [3], the target named is T2, IRAK-M. As to the kind of experiment: IRAK-M binding inhibitory activity (KINOMEscan active site-dependent competitive assay). More on the design: purchased Eurofins Discover X. Conditions: for remaining binding at 1 µM: concentration of the test compound 1 μM, first symbol of cell, read-out: IRAK-M binding inhibition activity % Ctrl; for IC50: second symbol of cell, read-out: IRAK-M binding inhibition IC50 value. In outline:
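Active site-dependent competition binding assay (KINOMEscan) against human IRAK-M. Result expressed as % Ctrl = (compound signal − positive control signal)/(DMSO signal − positive control signal) × 100, where DMSO = 100% Ctrl and control compound = 0% Ctrl.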

T1 sequence (P98170 252-356 limits assumed): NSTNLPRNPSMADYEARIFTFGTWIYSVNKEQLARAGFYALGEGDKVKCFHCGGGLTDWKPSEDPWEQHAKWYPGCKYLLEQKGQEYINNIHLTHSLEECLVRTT

One may read the IC50 as the concentration that gives 50% inhibition. As for `CN[C@@H](C)C(=O)N[C@H](C(=O)N1CCN(C(=O)c2c(C)c3cc(F)ccc3n2CC(=O)N2CCC[C@H]2COc2cc(CN3CCC(Oc4ccnc5ccsc45)CC3)on2)CC1)C1CCCCC1` [Example 39, (S)-N-((S)-1-cyclohexyl-2-(4-(5-fluoro-3-methyl-1-(2-oxo-2-((S)-2-(((5-((4-(thieno[3,2-b]pyridin-7-yloxy)piperidin-1-yl)methyl)isoxazol-3-yl)oxy)methyl)pyrrolidin-1-yl)ethyl)-1H-indole-2-carbonyl)piperazin-1-yl)-2-oxoethyl)-2-(methylamino)propanamide], in assay [1], the IC50 is 3 to 30 µM. For the same compound, on IRAK-M [2], the DC50 lay in the range of 0.1 to 0.3 µM. In addition, the remaining binding at 1 µM on IRAK-M [3] lay within 25 to 50%.
For `CN[C@@H](C)C(=O)N[C@H](C(=O)N1CCN(C(=O)c2cc3cc(F)ccc3n2CC(=O)N2CCC[C@H]2COc2cc(CN3CCC(Oc4ccnc5ccsc45)CC3)on2)[C@@H](C)C1)C1CCCCC1` [Example 28, (S)-N-((S)-1-Cyclohexyl-2-((S)-4-(5-fluoro-1-(2-oxo-2-((S)-2-(((5-((4-(thieno[3,2-b]pyridin-7-yloxy)piperidin-1-yl)methyl)isoxazol-3-yl)oxy)methyl)pyrrolidin-1-yl)ethyl)-1H-indole-2-carbonyl)-3-methylpiperazin-1-yl)-2-oxoethyl)-2-(methylamino)propanamide], the figures for the IC50 (in assay [1]; on IRAK-M [3]) were 3 to 30 µM and 0.3 to 1 µM, respectively. Besides, on IRAK-M [2], the DC50 was under 0.03 µM.
Turning to `CN[C@@H](C)C(=O)N[C@H](C(=O)N1CCN(C(=O)c2c(C(=O)NCCOCCOCCOc3cc(CN4CCC(Oc5ccnc6ccsc56)CC4)on3)c3cc(F)c(F)cc3n2C)[C@@H](C)C1)C1CCCCC1` [Example 12, 2-((S)-4-((S)-2-cyclohexyl-2-((S)-2-(methylamino)propanamido)acetyl)-2-methylpiperazine-1-carbonyl)-5,6-difluoro-1-methyl-N-(2-(2-(2-((5-((4-(thieno[3,2-b]pyridin-7-yloxy)piperidin-1-yl)methyl)isoxazol-3-yl)oxy)ethoxy)ethoxy)ethyl)-1H-indole-3-carboxamide], the IC50 in assay [1] fell in the range of 0.3 to 3 µM. In addition, the DC50 at IRAK-M [2] lay within 0.1 to 0.3 µM. In addition, the remaining binding at 1 µM at IRAK-M [3] is under 25%.
For `CN[C@@H](C)C(=O)N[C@H](C(=O)N1CCN(C(=O)c2c(C)c3cc(F)ccc3n2CC(=O)N(C)CCOCCOCCOCCOc2cc(CN3CCC(Oc4ccnc5ccsc45)CC3)on2)CC1)C1CCCCC1` [Example 33, (S)-N-((S)-1-cyclohexyl-2-(4-(5-fluoro-3-methyl-1-(3-methyl-2-oxo-14-((5-((4-(thieno[3,2-b]pyridin-7-yloxy)piperidin-1-yl)methyl)isoxazol-3-yl)oxy)-6,9,12-trioxa-3-azatetradecyl)-1H-indole-2-carbonyl)piperazin-1-yl)-2-oxoethyl)-2-(methylamino)propanamide], in that order: 3 to 30 µM, 0.3 to 1 µM and under 25%.
Take `CN[C@@H](C)C(=O)N[C@H](C(=O)N1CCN(C(=O)c2cc3cc(F)ccc3n2CC(=O)N2CCC[C@H]2COc2cc(CN3CCC(Oc4ccnc5ccsc45)CC3)on2)CC1)C1CCCCC1` [Example 26, (S)-N-((S)-1-Cyclohexyl-2-(4-(5-fluoro-1-(2-oxo-2-((S)-2-(((5-((4-(thieno[3,2-b]pyridin-7-yloxy)piperidin-1-yl)methyl)isoxazol-3-yl)oxy)methyl)pyrrolidin-1-yl)ethyl)-1H-indole-2-carbonyl)piperazin-1-yl)-2-oxoethyl)-2-(methylamino)propanamide]: the IC50 was in the range of 3 to 30 µM in assay [1] and 0.3 to 1 µM at IRAK-M [3]. Moreover, the DC50 on IRAK-M [2] is under 0.03 µM.
On to `CN[C@@H](C)C(=O)N[C@H](C(=O)N1CCN(C(=O)c2c(Cl)c3ccccc3n2CC(=O)N(C)CCOCCOCCOCCOc2cc(CN3CCC(Oc4ccnc5ccsc45)CC3)on2)CC1)C1CCCCC1` [Example 32, (S)-N-((S)-2-(4-(3-chloro-1-(3-methyl-2-oxo-14-((5-((4-(thieno[3,2-b]pyridin-7-yloxy)piperidin-1-yl)methyl)isoxazol-3-yl)oxy)-6,9,12-trioxa-3-azatetradecyl)-1H-indole-2-carbonyl)piperazin-1-yl)-1-cyclohexyl-2-oxoethyl)-2-(methylamino)propanamide], for which the IC50 in assay [1] was in the range of 3 to 30 µM. For the same compound, on IRAK-M [2], the DC50 is 0.3 to 1 µM. Moreover, the remaining binding at 1 µM at IRAK-M [3] was under 25%.
For `CN[C@@H](C)C(=O)N[C@H](C(=O)N1CCN(C(=O)c2cc3cc(F)c(F)cc3n2CCOCCOCCOCCOc2cc(CN3CCC(Oc4ccnc5ccsc45)CC3)on2)CC1)C1CCCCC1` [Example 29, (S)-N-((S)-1-cyclohexyl-2-(4-(5,6-difluoro-1-(2-(2-(2-(2-((5-((4-(thieno[3,2-b]pyridin-7-yloxy)piperidin-1-yl)methyl)isoxazol-3-yl)oxy)ethoxy)ethoxy)ethoxy)ethyl)-1H-indole-2-carbonyl)piperazin-1-yl)-2-oxoethyl)-2-(methylamino)propanamide] the same measures were 3 to 30 µM, 0.3 to 1 µM and under 25%.
For `CN[C@@H](C)C(=O)N[C@H](C(=O)N1CCN(C(=O)c2cc3cc(F)c(F)cc3n2CC(=O)N(C)CCOCCOCCOCCOc2cc(CN3CCC(Oc4ccnc5ccsc45)CC3)on2)CC1)C1CCCCC1` [Example 24, (S)-N-((S)-1-Cyclohexyl-2-(4-(5,6-difluoro-1-(3-methyl-2-oxo-14-((5-((4-(thieno[3,2-b]pyridin-7-yloxy)piperidin-1-yl)methyl)isoxazol-3-yl)oxy)-6,9,12-trioxa-3-azatetradecyl)-1H-indole-2-carbonyl)piperazin-1-yl)-2-oxoethyl)-2-(methylamino)propanamide hydrochloride] the same measures were 3 to 30 µM, 0.3 to 1 µM and under 25%.
`CN[C@@H](C)C(=O)N[C@H](C(=O)N1CCN(C(=O)c2c(F)c3ccccc3n2CC(=O)N(C)CCOCCOCCOCCOc2cc(CN3CCC(Oc4ccnc5ccsc45)CC3)on2)CC1)C1CCCCC1` [Example 37, (S)-N-((S)-1-cyclohexyl-2-(4-(3-fluoro-1-(3-methyl-2-oxo-14-((5-((4-(thieno[3,2-b]pyridin-7-yloxy)piperidin-1-yl)methyl)isoxazol-3-yl)oxy)-6,9,12-trioxa-3-azatetradecyl)-1H-indole-2-carbonyl)piperazin-1-yl)-2-oxoethyl)-2-(methylamino)propanamide]: in assay [1], the IC50 was in the range of 3 to 30 µM. In addition, at IRAK-M [2], the DC50 is 0.3 to 1 µM. Besides, the remaining binding at 1 µM at IRAK-M [3] was at least 75%.
On to `CN[C@@H](C)C(=O)N[C@H](C(=O)N1CCC[C@H]1c1nc(C(=O)c2cccc(OCCOCCOCCOc3cc(CN4CCC(Oc5ccnc6ccsc56)CC4)on3)c2)cs1)C1CCCCC1` [Example 59, (S)-N-((S)-1-cyclohexyl-2-oxo-2-((S)-2-(4-(3-(2-(2-(2-((5-((4-(thieno[3,2-b]pyridin-7-yloxy)piperidin-1-yl)methyl)isoxazol-3-yl)oxy)ethoxy)ethoxy)ethoxy)benzoyl)thiazol-2-yl)pyrrolidin-1-yl)ethyl)-2-(methylamino)propanamide], for which the IC50 in assay [1] was under 0.3 µM. Besides, the DC50 on IRAK-M [2] lay in the range of 0.3 to 1 µM. Moreover, the remaining binding at 1 µM at IRAK-M [3] is under 25%.

Source of the values: US20220402935A1, “HETEROCYCLIC COMPOUND” (FIMECS, INC., priority 2019, published 2022).
